Laboratory results from patent publication US10203334B2, “Methods and compositions related to nucleic acid binding assays” (Nubad, LLC, priority 2012, dated 2019).

Key:
bacterial A-site oligos = details: cited from earlier work
[1] = system: dimeric form of a parallel quadruplex formed by the Tetrahymena telomere; details: cited from earlier work
[2] = system: E. coli ribosomal A-site oligonucleotide (SEQ ID No. 1); test: 96-well F-neo displacement HTS on ribosomal A-site; format: binding; details: 0.30 mM F-neo, 0.3 mM A-site oligonucleotide, 1.0 mM neomycin
Excerpt: [drawing 24] where FHNeo represents the protonated form of F-neo. F(-)Neo, upon binding to nucleic acids such as DNA or RNA, is destabilized by the nucleic acid backbone negative potential, shifting the equilibrium towards FH, making F-neo a weaker acid, raising the pKa, which is what we observe upon binding to the A-site. For the A-site targeted assay, we calculated the Z' factor (Z=1-3(2.7+2.8)/(414-267)=0.89. […] Provided is a detailed example for the development of a HTS by the displacement of a fluorescene-neomycin (F-neo (42a)) from rRNA A-site oligonucleotide (SEQ ID No. 1) using a 96 well plate format and a fluorescent plate reader. […] This HTS involves the displacement of a fluorescene-neomycin (F-neo (42a)) by potential RNA binding molecules in a 96 well plate format using a fluorescent plate reader. […] F-neo based RNA binding assays have been performed using a fluorescence spectrophotometer with a 96-well plate reader and results recorded in FIG. 4. […] Fo is defined as the baseline fluorescence intensity of the RNA/F-neo complex and F is the intensity with added drug. The difference between the fluorescence intensity baseline of F-neo/A-site complex and complex with added drug (F-Fo) indicates the extent of the competition of drug for the binding site, this allows the relative binding affinities of aminoglycosides to be established. […]

TAR RNA = details: read-out: IC50 for inhibition of Tat peptide binding to the TAR RNA; cited from earlier work
DNA d(G4C4) [3] = test: Displacement of TO-neo (36a) from GC DNA, 96-well; format: binding; details: FIG. 14
Excerpt: The HTS by the displacement of a thiazole-neomycin (TO-neo (36a)) bound from a synthetic DNA sequence eight bases long designed to conform to A-form DNA by the synthetic molecule neomycin-anthraquinone 67 using a 96 well plate format and a fluorescent plate reader was disclosed herein.
The high throughput screening (HTS) has been designed to determine the binding of drugs to the target sequence d(G4C4). The target is predicted to exist predominately in the A-form conformation of DNA. This HTS involves the displacement of a TO-neo (36a) molecule by DNA binding molecules in a 96 well plate format using a fluorescent plate reader. […] The quality of the assay was determined by the calculation of a Z′-factor using equation 1 for the displacement of TO-neo (36a) from the DNA by a neomycin-anthraquinone 67 conjugate. […]
The fluorescence of the probe decrease approximately 60% with the addition of the neomycin-anthraquinone 67, a synthetic molecule predicted to bind in the major groove. However, with the addition of the minor groove binding compound 59, the change in fluorescence is less than 10%. The change in the fluorescence observed upon the addition of the compound 59 is approximately the same as that observed in the DMSO control.

DNA d(G4C4) [4] = test: Displacement of F-neo (42a) from GC DNA, 96-well; format: binding; details: one molar equivalent; FIG. 15
Excerpt: The HTS by the displacement of a fluorescene-neomycin (F-neo (42a)) bound from a synthetic DNA sequence eight bases long designed to conform to A-form DNA by the synthetic molecule neomycin-anthraquinone (67) using a 96 well plate format and a fluorescent plate reader is disclosed.
The high throughput screening (HTS) has been designed to determine the binding of drugs to the target sequence d(G4C4). The target is predicted to exist predominately in the A-form conformation of DNA. This HTS involves the displacement of a fluorescene-neomycin (F-neo (42a)) by DNA binding molecules in a 96 well plate format using a fluorescent plate reader. […] The quality of the assay was determined by the calculation of a Z′-factor using equation 1 for the displacement of F-neo (42a) from the DNA by neomycin-anthraquinone 67. The final assay results were obtained using the average (μn) and standard deviation (σn) from 36 wells of 0.1 μM F-neo (42a)/DNA d(G4C4) as the negative control and from the average (μp) and standard deviation (σp) 36 wells of 0.1 μM F-neo (42a)/DNA d(G4C4) mixed with 0.3 μM neomycin-anthraquinone 67 as the positive control.
Upon binding to the DNA the fluorescence of F-neo (42a) is quenched. […] This increase is not observed with the addition of the minor groove binding compound 59, in which the change in the fluorescence observed is approximately the same as that of the DMSO control.

In the case of `NC[C@@H]1O[C@H](O[C@H]2[C@@H](O)[C@H](O[C@@H]3[C@@H](O)[C@H](N)C[C@H](N)[C@H]3O[C@H]3O[C@H](CO)[C@@H](O)[C@H](O)[C@H]3N)O[C@@H]2CO)[C@H](N)[C@@H](O)[C@@H]1O` [paromomycin], the “relative binding affinities with bacterial A-site oligos” value (from here on “relative binding affinities”) (bacterial A-site oligos) is listed as “neomycin>paromomycin>ribostamycin”.

In the case of `NC[C@H]1O[C@H](O[C@H]2[C@H](O[C@@H]3O[C@H](CO)[C@@H](O)[C@H]3O)[C@@H](O)[C@H](N)C[C@@H]2N)[C@H](N)[C@@H](O)[C@@H]1O` [ribostamycin], the “relative binding affinities” value (bacterial A-site oligos) is given as “neomycin>paromomycin>ribostamycin”.

In the case of neomycin, the “affinity” value [1] is listed as “nanomolar affinity”, the “relative binding affinities” value (bacterial A-site oligos) is listed as “neomycin>paromomycin>ribostamycin” and the “effect of added drug on fluorescence of F-neo/A-site oligonucleotide complex” value [2] is listed as “restored the intensity to F-neo only levels”. For the same molecule, the IC50 (TAR RNA) was 0.92 ± 0.09 µM.

With `CN(C)CCCNC(=O)c1cc(NC(=O)c2cc(NC(=O)c3nc(NC(=O)c4nc(NC(=O)CCCNC(=O)c5cc(NC(=O)c6cc(NC(=O)c7nc(NC(=O)c8nccn8C)cn7C)cn6C)cn5C)cn4C)cn3C)cn2C)cn1C` [compound 59, reference compound] the “decrease in fluorescence of TO-neo (36a) bound to d(G4C4)2 on addition of compound” value (DNA d(G4C4) [3]) was “less than 10%” and the “change in fluorescence of F-neo (42a) bound to d(G4C4)2 on addition of compound” value (DNA d(G4C4) [4]) was “not displaced”.

In the case of `NCC1O[C@H](OC2C(O)C(OC3C(O)[C@H](N)CC(N)[C@H]3O[C@H]3OC(CN)[C@@H](O)C(O)C3N)O[C@@H]2CSCCNC(=S)NCCNC(=O)c2ccc3c(c2)C(=O)c2ccccc2C3=O)C(N)C(O)[C@@H]1O` (stereo partly drawn) [neomycin-anthraquinone 67, Neomycin-Anthraquinone Conjugate], the “decrease in fluorescence of TO-neo (36a) bound to d(G4C4)2 on addition of compound” value (DNA d(G4C4) [3]) is reported as “approximately 60%” and the “change in fluorescence of F-neo (42a) bound to d(G4C4)2 on addition of compound” value (DNA d(G4C4) [4]) is reported as “significant increase in the fluorescence”.

For `[H]/N=C(/N)N[C@H]1[C@H](O)[C@@H](O)[C@H](O[C@@H]2O[C@@H](C)[C@](O)(C=O)[C@H]2O[C@@H]2O[C@@H](CO)[C@H](O)[C@@H](O)[C@@H]2NC)[C@@H](N/C(N)=N\[H])[C@@H]1O` [streptomycin], the IC50 (TAR RNA) is listed as 9.5 ± 0.8 µM.

For gentamicin, the IC50 (TAR RNA) is given as 45 ± 4 µM.
